# Experimental data from paper PMC9078697, “Discovery and preliminary SAR of 14-aryloxy-andrographolide derivatives as antibacterial agents with immunosuppressant activity” (RSC Advances, 2018).
# How the values were obtained:
# [1] = tested on: IL-6/STAT3 signaling pathway; experiment: IL-6/STAT3 luciferase reporter assay in AD-293 cells; format: cell-based; details: Homo sapiens, AD293; AD-293 reporter cells; 2.5 μg mL−1 IL-6; treated for 16 h
# Description: (§1) We utilized luciferase reporters bearing the promoter regions of TNF-α/NF-κB, TLR4/NF-κB, and IL-6/STAT3 ([ref. 25]) to examine the activities of the antibacterial active andrographolide analogs in the regulation of signaling pathways that govern inflammatory response (Table 2). […] Like their similarity in inhibitory activity against E. faecalis, E. coli and S. aureus (Table 1), 3-keto-19-alcohol compound 9b1 suppresses three signaling pathways in the same fashion as 6b17 (Table 2). […] Cells from the AD-293 cell line, a derivative of the HEK293 cell line with improved adherence and plaque formation properties, were purchased from Stratagene (La Jolla, CA, USA). The protocols were adopted and modified from our previous report.[25] All compounds were dissolved in DMSO at 10 mM as a stock solution. The final concentration of DMSO was 0.1% in the culture medium. AD-293 cells bearing luciferase reporters with promoter regions of IL-6/STAT3 and TNF-α/NF-κB in pGL4.20 vector (Promega) were maintained in DMEM high glucose medium supplemented with 10% FBS and 1% penicillin streptomycin in the presence of 1 μg mL^−1 puromycin. AD-293 cells overexpressing TLR4 and stably transfected with NF-κB reporter were maintained in DMEM high glucose medium in the presence of 1 μg mL^−1 puromycin and 10 μg mL^−1 blasticidin. All cells were maintained in a humidified incubator at 37 °C in 95% air and 5% CO2. Reporter cells were treated with 50 ng mL^−1 TNF-α to stimulate the NF-κB signaling pathway, 1 μg mL^−1 LPS to stimulate the TLR4/NF-κB signaling pathway, and 2.5 μg mL^−1 IL-6 to stimulate the IL-6/STAT3 signaling pathway. The medium was removed at the end of the treatment, cell extracts were prepared, and the luciferase activity was measured using a Luciferase assay kit (Promega) according to the manufacturer's instructions. EC50 was defined as the concentration of drug that inhibited stimulator-triggered luciferase reporter activation by 50% after continuous drug exposure for 4 (TNF-α/NF-κB) or 16 (IL-6/STAT3 and TLR4/NF-κB) hours. Each concentration was repeated 3 times independently.
# [2] = Cytotoxicity (MTT) in AD-293 cells; format: cell-based; details: human, AD-293 cells (HEK293 derivative), treated for 24 h
# S. aureus = experiment: Bacteriostatic screening (growth, OD630) against S. aureus; format: cell-based; details: for IC50 / inhibition at 250 µM: Staphylococcus aureus; for IC50: 24 h, IC50 generated when inhibition at 250 μM was higher than 80%; for inhibition at 250 µM / inhibition rate (%) SA: at 250 μM of the tested compound; for inhibition at 250 µM: read-out: inhibition rate (%) SA; for inhibition rate SA (symbol /): at 250 μM of tested compound
# Experimental: (§2) The strategy in this study was to submit these synthesized compounds to a preliminary screening test against E. coli, S. aureus and E. faecalis (ciprofloxacin was used as a reference compound; see Table 1). […] The tested compound or ciprofloxacin (positive drug) was dissolved in DMSO and diluted with LB liquid medium into a stock solution containing 20% DMSO before use; the stock solution of the carrier was 20% DMSO in LB liquid medium. All the experiments, including blank controls, were performed in triplicate. Bacteriostatic screening was performed by applying a modified protocol of the National Committee on Clinical Laboratory Standards (NCCLS).[29] Briefly, E. coli, S. aureus and E. faecalis cells (American Type Culture Collection, ATCC) were grown in LB plate medium for one passage, then seeded in LB liquid medium and cultured at 37 °C for 12 h. After being diluted 1000 times, 190 μL diluted cells were aliquoted to 96-well plates; then, 10 μL stock solution of carrier or a gradient amount of the tested compound or the positive compound, ciprofloxacin, were added; the final concentration of DMSO was 1% in all wells. The blank controls contained 1% DMSO and LB medium but no bacterial cells.
# [3] = tested on: TLR4/NF-κB signaling pathway; experiment: TLR4/NF-κB luciferase reporter assay in AD-293 cells; format: cell-based; details: Homo sapiens, AD293; AD-293 reporter cells; 1 μg mL−1 LPS; treated for 16 h
# Description: as §1
# [4] = tested on: TNF-α/NF-κB signaling pathway; experiment: TNF-α/NF-κB luciferase reporter assay in AD-293 cells; format: cell-based; details: Homo sapiens, AD293; AD-293 reporter cells; 50 ng mL−1 TNF-α; treated for 4 h
# Description: as §1
# E. faecalis = experiment: Bacteriostatic screening (growth, OD630) against E. faecalis; format: cell-based; details: for IC50: 24 h, IC50 generated when inhibition at 250 μM was higher than 80%
# Experimental: as §2
# E. coli = experiment: Bacteriostatic screening (growth, OD630) against E. coli; format: cell-based; details: for IC50 / inhibition at 250 µM: Escherichia coli; for IC50: 24 h, IC50 generated when inhibition at 250 μM was higher than 80%; for inhibition at 250 µM / inhibition rate (%) EC: at 250 μM of the tested compound; for inhibition at 250 µM: read-out: inhibition rate (%) EC; for inhibition rate EC (symbol /): at 250 μM of tested compound
# Experimental: as §2
# [5] = at 250 μM of the tested compound
molecule,measurement,setting,value
"C=C1CC[C@@H]2[C@](C)(CO)[C@H](O)CC[C@@]2(C)[C@@H]1C/C=C1/C(=O)OC[C@@H]1Oc1cccc2cccnc12 [6b17, (14β)-(Quinolyl-8′-oxy)andrographolide]",EC50,[1],2.41 ± 0.31 µM
same,CC50 at 24 h,[2],> 10 µM
same,melting point,,134 to 136 °C
same,IC50,S. aureus,37.5 ± 2.2 µM
same,EC50,[3],2.65 ± 0.07 µM
same,EC50,[4],2 ± 0.28 µM
same,IC50,E. faecalis; Enterococcus faecalis,6.3 ± 1.5 µM
same,times more active than 5b17 against E. faecalis,E. faecalis; versus 5b17,3 times
same,IC50,E. coli,21.6 ± 1.7 µM
"C=C1CC[C@@H]2[C@](C)(COC(C)=O)[C@H](O)CC[C@@]2(C)[C@@H]1C/C=C1/C(=O)OC[C@@H]1Oc1cccc2cccnc12 [7b1, (14β)-(quinolyl-8′-oxy)-19-acetoxy andrographolide]",EC50,[1],> 10 µM
same,CC50 at 24 h,[2],> 10 µM
same,inhibition at 250 µM,S. aureus,58%
same,EC50,[3],> 10 µM
same,EC50,[4],4.91 ± 0.02 µM
same,IC50,E. faecalis; Enterococcus faecalis,8.6 ± 0.7 µM
same,inhibition at 250 µM,E. coli,60%
"C=C1CC[C@@H]2[C@](C)(CO[Si](C)(C)C(C)(C)C)[C@H](O)CC[C@@]2(C)[C@@H]1C/C=C1/C(=O)OC[C@@H]1Oc1cccc2cccnc12 [7b2, (14β)-(quinolyl-8′-oxy)-19-(t-butyldimethylsilyloxy)andrographolide]",melting point,,149 to 151 °C
same,inhibition at 250 µM,S. aureus,23%
same,IC50,E. faecalis; Enterococcus faecalis,26.2 ± 2.8 µM
same,inhibition at 250 µM,E. coli,24%
"C=C1CC[C@H]2[C@@](C)(CCC(=O)[C@@]2(C)COC(C)=O)[C@@H]1C/C=C1/C(=O)OC[C@@H]1Oc1cccc2cccnc12 [8b1, (14β)-(quinolyl-8′-oxy)-3-keto-19-acetoxy andrographolide]",EC50,[1],> 10 µM
same,CC50 at 24 h,[2],> 10 µM
same,inhibition at 250 µM,S. aureus,42%
same,EC50,[3],4.84 ± 0.31 µM
same,EC50,[4],> 10 µM
same,IC50,E. faecalis; Enterococcus faecalis,7.6 ± 0.8 µM
same,inhibition at 250 µM,E. coli,34%
"C=C1CC[C@H]2[C@@](C)(CCC(=O)[C@@]2(C)CO[Si](C)(C)C(C)(C)C)[C@@H]1C/C=C1/C(=O)OC[C@@H]1Oc1cccc2cccnc12 [8b2, (14β)-(quinolyl-8′-oxy)-3-keto-19-(t-butyldimethylsilyloxy)andrographolide]",inhibition at 250 µM,S. aureus,28%
same,inhibition at 250 µM,"E. faecalis; Enterococcus faecalis, at 250 μM of the tested compound, read-out: inhibition rate (%) EF",71%
same,inhibition at 250 µM,E. coli,25%
"C=C1CC[C@H]2[C@@](C)(CCC(=O)[C@@]2(C)CO)[C@@H]1C/C=C1/C(=O)OC[C@@H]1Oc1cccc2cccnc12 [9b, (14β)-(quinolyl-8′-oxy)-3-keto andrographolide]",EC50,[1],6.13 ± 0.39 µM
same,CC50 at 24 h,[2],> 10 µM
same,melting point,,141 to 143 °C
same,IC50,S. aureus,27.6 ± 1.8 µM
same,EC50,[3],5.96 ± 0.03 µM
same,EC50,[4],2.03 ± 0.01 µM
same,IC50,E. faecalis; Enterococcus faecalis,9.1 ± 2.1 µM
same,IC50,E. coli,27.9 ± 1.5 µM
"O=C(O)c1cn(C2CC2)c2cc(N3CCNCC3)c(F)cc2c1=O [Ciprofloxacin, reference compound]",IC50,S. aureus,0.4 ± 0.06 µM
same,IC50,E. faecalis; Enterococcus faecalis,2.3 ± 0.6 µM
same,IC50,E. coli,0.31 ± 0.06 µM
"C=C1CC[C@@H]2[C@](C)(CO)[C@H](O)CC[C@@]2(C)[C@@H]1C/C=C1/C(=O)OC[C@H]1O [compound 1, Andrographolide]",EC50,[1],> 10 µM
same,CC50 at 24 h,[2],> 10 µM
same,EC50,[3],> 10 µM
same,EC50,[4],> 10 µM
(14α)-(2′-Carboxy ethyl ester-4′-nitro)phenoxy-andrographolide [6a1],inhibition rate (%) SA,S. aureus,(10) %
same,IC50,E. faecalis,72.2 ± 9.2 µM
same,inhibition rate EC (symbol /),E. coli,/ (“/”represents no inhibition or lower than 10% inhibition rate at 250 μM of tested compound)
"(14α)-(2′-Fluoro-4′-nitro)phenoxy-3,19-acetonylidene andrographolide [5a2]",inhibition rate (%) SA,S. aureus,(20) %
same,IC50,E. faecalis,56.7 ± 6.5 µM
same,inhibition rate (%) EC,E. coli,(20) %
"(14β)-(2′-Carboxy ethyl ester)phenoxy-3,19-acetonylidene andrographolide [5b8]",inhibition rate SA (symbol /),S. aureus,/ (“/”represents no inhibition or lower than 10% inhibition rate at 250 μM of tested compound)
same,inhibition rate (%) EF,E. faecalis; [5],(22) %
same,inhibition rate EC (symbol /),E. coli,/ (“/”represents no inhibition or lower than 10% inhibition rate at 250 μM of tested compound)
(14β)-(2′-Carboxy ethyl ester-4′-nitro)phenoxy-andrographolide [6b1],inhibition rate (%) SA,S. aureus,(40) %
same,IC50,E. faecalis,27.7 ± 3.5 µM
same,inhibition rate (%) EC,E. coli,(17) %
"(14β)-(2′-Nitro)phenoxy-3,19-acetonylidene andrographolide [5b6]",inhibition rate SA (symbol /),S. aureus,/ (“/”represents no inhibition or lower than 10% inhibition rate at 250 μM of tested compound)
same,inhibition rate (%) EF,E. faecalis; [5],43%
same,inhibition rate EC (symbol /),E. coli,/ (“/”represents no inhibition or lower than 10% inhibition rate at 250 μM of tested compound)
"(14β)-(3′-Fluoro-4′-nitro)phenoxy-3,19-acetonylidene andrographolide [5b4]",inhibition rate (%) SA,S. aureus,(15) %
same,inhibition rate (%) EF,E. faecalis; [5],(73) %
same,inhibition rate (%) EC,E. coli,(19) %
"(14β)-(4′-Carboxy ethyl ester)phenoxy-3,19-acetonylidene andrographolide [5b9]",inhibition rate (%) SA,S. aureus,(15) %
same,inhibition rate (%) EF,E. faecalis; [5],(42) %
same,inhibition rate EC (symbol /),E. coli,/ (“/”represents no inhibition or lower than 10% inhibition rate at 250 μM of tested compound)
"(14β)-(4′-Cyano)phenoxy-3,19-acetonylidene andrographolide [5b10]",inhibition rate (%) SA,S. aureus,(22) %
same,inhibition rate (%) EF,E. faecalis; [5],(46) %
same,inhibition rate (%) EC,E. coli,(20) %
"(14β)-(Quinolyl-4′-oxy)-3,19-acetonylidene andrographolide [5b16]",inhibition rate SA (symbol /),S. aureus,/ (“/”represents no inhibition or lower than 10% inhibition rate at 250 μM of tested compound)
same,IC50,E. faecalis,15.5 ± 4.2 µM
same,inhibition rate EC (symbol /),E. coli,/ (“/”represents no inhibition or lower than 10% inhibition rate at 250 μM of tested compound)
